{
  "source": "patent US20260263429A1",
  "about": "“INHIBITORS OF CA 2+/CALMODULIN-DEPENDENT PROTEIN KINASE II (CAMKII) THAT DO NOT INHIBIT LONG-TERM POTENTIATION (LTP) INDUCTION AND THERAPEUTIC USES THEREOF” (The Regents of the University of Colorado, A Body Corporate, priority 2023, published 2026)",
  "key": {"[1]": {"molecular_target": "Arg(h) (Homo sapiens, UniProt P42684)", "assay": "Kinase panel, residual kinase activity at 1 μM inhibitor", "type": "biochemical", "description": "(§1) In this table, residual kinase activity in the presence of 1 μM of each inhibitor is illustrated as a percentage of maximal activity."}, "[2]": {"molecular_target": "Aurora-C(h) (Homo sapiens, UniProt Q9UQB9)", "assay": "Kinase panel, residual kinase activity at 1 μM inhibitor", "type": "biochemical", "description": "as §1"}, "[3]": {"molecular_target": "CDK5/p35(h) (Homo sapiens, UniProt Q00535)", "assay": "Kinase panel, residual kinase activity at 1 μM inhibitor", "type": "biochemical", "description": "as §1"}, "[4]": {"molecular_target": "CaMKI(h) (Homo sapiens, UniProt Q14012)", "assay": "Kinase panel, residual kinase activity at 1 μM inhibitor", "type": "biochemical", "description": "as §1"}, "[5]": {"molecular_target": "CaMKIIβ(h) (Homo sapiens, UniProt Q13554)", "assay": "Kinase panel, residual kinase activity at 1 μM inhibitor", "type": "biochemical", "description": "as §1"}, "[6]": {"molecular_target": "CaMKIIδ(h) (Homo sapiens, UniProt Q13557)", "assay": "Kinase panel, residual kinase activity at 1 μM inhibitor", "type": "biochemical", "description": "as §1"}, "[7]": {"molecular_target": "FAK(h) (Homo sapiens, UniProt Q05397)", "sequence (Q05397 whole entry)": "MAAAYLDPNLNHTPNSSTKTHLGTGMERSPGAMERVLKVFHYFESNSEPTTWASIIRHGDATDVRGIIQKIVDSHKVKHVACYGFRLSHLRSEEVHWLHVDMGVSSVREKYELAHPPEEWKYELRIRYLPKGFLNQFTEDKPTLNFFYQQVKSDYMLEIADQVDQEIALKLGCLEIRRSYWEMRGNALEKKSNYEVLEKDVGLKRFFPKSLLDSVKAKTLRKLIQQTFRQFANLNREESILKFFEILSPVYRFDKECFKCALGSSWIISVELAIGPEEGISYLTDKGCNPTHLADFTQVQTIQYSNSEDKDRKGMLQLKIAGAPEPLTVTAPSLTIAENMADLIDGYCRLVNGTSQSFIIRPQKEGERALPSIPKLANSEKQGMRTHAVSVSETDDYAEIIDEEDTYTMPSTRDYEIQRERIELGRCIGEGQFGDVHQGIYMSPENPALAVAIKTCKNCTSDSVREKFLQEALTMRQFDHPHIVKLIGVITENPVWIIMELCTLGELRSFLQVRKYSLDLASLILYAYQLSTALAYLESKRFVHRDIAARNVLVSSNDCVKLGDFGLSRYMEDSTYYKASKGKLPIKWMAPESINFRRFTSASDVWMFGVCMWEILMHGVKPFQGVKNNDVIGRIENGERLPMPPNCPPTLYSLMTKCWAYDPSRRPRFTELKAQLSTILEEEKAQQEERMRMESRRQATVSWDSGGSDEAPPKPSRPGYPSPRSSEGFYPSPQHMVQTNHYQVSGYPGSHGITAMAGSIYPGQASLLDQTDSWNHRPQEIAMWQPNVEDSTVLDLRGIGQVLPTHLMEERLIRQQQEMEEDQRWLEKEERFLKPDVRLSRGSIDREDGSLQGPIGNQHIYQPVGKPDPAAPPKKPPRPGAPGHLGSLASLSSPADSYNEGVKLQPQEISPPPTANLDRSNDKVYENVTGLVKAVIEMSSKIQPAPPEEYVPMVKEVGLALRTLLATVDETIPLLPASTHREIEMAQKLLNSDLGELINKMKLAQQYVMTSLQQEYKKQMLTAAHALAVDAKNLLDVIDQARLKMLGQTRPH", "assay": "Kinase panel, residual kinase activity at 1 μM inhibitor", "type": "biochemical", "description": "as §1"}, "[8]": {"molecular_target": "Flt3(h) (Homo sapiens, UniProt P36888)", "assay": "Kinase panel, residual kinase activity at 1 μM inhibitor", "type": "biochemical", "description": "as §1"}, "[9]": {"molecular_target": "IGF-1R(h) (Homo sapiens, UniProt P08069)", "assay": "Kinase panel, residual kinase activity at 1 μM inhibitor", "type": "biochemical", "description": "as §1"}, "[10]": {"molecular_target": "JAK2(h) (Homo sapiens, UniProt O60674)", "assay": "Kinase panel, residual kinase activity at 1 μM inhibitor", "type": "biochemical", "description": "as §1"}, "[11]": {"molecular_target": "JAK3(h) (Homo sapiens, UniProt P52333)", "sequence (P52333 whole entry)": "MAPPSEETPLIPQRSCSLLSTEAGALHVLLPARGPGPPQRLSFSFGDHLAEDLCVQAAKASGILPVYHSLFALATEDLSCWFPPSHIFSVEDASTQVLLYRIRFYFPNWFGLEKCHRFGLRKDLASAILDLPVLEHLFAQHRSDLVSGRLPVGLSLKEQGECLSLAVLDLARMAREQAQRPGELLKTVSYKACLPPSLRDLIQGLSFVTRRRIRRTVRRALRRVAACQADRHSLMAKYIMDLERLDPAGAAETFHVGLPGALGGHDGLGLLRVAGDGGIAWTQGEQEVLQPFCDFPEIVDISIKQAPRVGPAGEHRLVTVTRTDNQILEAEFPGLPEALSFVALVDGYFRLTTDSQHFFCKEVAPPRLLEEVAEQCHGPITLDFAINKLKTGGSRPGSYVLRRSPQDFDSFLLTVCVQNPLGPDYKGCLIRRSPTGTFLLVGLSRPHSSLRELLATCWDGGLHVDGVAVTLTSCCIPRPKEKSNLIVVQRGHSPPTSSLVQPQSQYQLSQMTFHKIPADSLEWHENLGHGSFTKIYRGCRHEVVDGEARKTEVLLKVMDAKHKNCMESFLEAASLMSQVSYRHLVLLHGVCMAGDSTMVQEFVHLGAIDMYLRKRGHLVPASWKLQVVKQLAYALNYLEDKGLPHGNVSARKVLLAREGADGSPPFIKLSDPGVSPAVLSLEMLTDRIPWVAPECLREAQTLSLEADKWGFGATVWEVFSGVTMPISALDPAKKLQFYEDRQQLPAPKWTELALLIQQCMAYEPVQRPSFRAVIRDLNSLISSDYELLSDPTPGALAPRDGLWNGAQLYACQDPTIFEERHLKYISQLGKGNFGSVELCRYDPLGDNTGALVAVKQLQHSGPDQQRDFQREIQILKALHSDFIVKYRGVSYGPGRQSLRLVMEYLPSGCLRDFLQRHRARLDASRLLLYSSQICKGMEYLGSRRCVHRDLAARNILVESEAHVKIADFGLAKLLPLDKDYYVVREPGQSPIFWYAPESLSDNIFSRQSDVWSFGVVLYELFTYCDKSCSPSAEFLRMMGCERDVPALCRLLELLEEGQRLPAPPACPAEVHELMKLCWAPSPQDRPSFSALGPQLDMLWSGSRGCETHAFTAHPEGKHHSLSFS", "assay": "Kinase panel, residual kinase activity at 1 μM inhibitor", "type": "biochemical", "description": "as §1"}, "[12]": {"molecular_target": "JNK2α2(h) (Homo sapiens, UniProt P45984)", "sequence (P45984 whole entry)": "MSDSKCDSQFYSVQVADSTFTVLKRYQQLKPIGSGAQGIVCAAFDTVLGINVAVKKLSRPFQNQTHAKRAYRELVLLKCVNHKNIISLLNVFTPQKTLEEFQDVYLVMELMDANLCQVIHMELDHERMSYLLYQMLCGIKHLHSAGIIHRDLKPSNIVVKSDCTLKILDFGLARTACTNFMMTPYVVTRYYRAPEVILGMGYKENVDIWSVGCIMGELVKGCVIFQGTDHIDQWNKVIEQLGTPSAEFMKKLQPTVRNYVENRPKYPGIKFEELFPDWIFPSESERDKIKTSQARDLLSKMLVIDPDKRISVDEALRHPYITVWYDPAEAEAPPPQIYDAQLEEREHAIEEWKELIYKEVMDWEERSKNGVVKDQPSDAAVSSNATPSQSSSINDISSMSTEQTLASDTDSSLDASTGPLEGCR", "assay": "Kinase panel, residual kinase activity at 1 μM inhibitor", "type": "biochemical", "description": "as §1"}, "[13]": {"molecular_target": "MAPK1(h) (Homo sapiens, UniProt P27361)", "assay": "Kinase panel, residual kinase activity at 1 μM inhibitor", "type": "biochemical", "description": "as §1"}, "[14]": {"molecular_target": "MEK1(h) (Homo sapiens, UniProt Q02750)", "assay": "Kinase panel, residual kinase activity at 1 μM inhibitor", "type": "biochemical", "description": "as §1"}, "[15]": {"molecular_target": "PAK2(h) (Homo sapiens, UniProt Q13177)", "sequence (Q13177 whole entry)": "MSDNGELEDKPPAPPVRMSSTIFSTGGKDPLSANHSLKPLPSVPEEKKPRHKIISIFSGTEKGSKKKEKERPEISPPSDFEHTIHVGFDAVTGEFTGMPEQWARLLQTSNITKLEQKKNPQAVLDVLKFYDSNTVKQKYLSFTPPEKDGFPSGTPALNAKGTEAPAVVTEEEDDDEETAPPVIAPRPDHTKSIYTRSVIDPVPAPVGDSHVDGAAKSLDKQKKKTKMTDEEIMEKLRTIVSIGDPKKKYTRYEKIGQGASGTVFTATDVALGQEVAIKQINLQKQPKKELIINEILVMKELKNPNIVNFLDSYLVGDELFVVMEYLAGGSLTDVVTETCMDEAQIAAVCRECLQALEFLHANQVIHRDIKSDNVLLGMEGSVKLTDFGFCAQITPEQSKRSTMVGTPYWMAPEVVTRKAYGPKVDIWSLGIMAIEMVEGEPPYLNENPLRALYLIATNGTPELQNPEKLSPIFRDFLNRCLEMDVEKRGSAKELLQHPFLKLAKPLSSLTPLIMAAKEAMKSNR", "assay": "Kinase panel, residual kinase activity at 1 μM inhibitor", "type": "biochemical", "description": "as §1"}, "[16]": {"molecular_target": "PDGFRβ(h) (Homo sapiens, UniProt P09619)", "sequence (P09619 33-1106)": "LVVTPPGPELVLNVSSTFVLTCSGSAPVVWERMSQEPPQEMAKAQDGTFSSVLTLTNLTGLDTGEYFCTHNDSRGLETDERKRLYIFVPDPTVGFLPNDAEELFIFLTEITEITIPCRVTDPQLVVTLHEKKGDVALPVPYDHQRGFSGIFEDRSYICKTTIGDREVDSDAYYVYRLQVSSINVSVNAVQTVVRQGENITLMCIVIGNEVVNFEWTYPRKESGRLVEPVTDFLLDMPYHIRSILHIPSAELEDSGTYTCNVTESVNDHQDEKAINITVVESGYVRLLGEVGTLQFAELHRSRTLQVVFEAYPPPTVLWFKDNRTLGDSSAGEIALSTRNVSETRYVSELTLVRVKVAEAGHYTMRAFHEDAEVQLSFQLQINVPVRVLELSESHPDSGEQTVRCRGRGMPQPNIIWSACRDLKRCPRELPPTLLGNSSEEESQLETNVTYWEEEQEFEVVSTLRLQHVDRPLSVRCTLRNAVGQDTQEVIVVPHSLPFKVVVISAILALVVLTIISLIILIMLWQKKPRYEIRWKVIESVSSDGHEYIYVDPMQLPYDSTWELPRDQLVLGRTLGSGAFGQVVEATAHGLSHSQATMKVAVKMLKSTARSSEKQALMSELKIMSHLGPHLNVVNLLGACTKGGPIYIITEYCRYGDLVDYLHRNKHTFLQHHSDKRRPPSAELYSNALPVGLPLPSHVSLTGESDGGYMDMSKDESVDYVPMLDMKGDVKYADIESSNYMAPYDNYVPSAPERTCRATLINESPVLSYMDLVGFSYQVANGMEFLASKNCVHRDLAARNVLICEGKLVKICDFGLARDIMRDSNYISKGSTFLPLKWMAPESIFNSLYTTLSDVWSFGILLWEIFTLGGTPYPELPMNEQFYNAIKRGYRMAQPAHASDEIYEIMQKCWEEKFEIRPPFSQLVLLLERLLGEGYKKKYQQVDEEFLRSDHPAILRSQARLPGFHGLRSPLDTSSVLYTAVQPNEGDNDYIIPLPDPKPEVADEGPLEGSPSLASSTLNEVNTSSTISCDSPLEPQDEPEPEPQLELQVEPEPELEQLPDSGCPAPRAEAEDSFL", "assay": "Kinase panel, residual kinase activity at 1 μM inhibitor", "type": "biochemical", "description": "as §1"}, "[17]": {"molecular_target": "PI3 Kinase (p110a/p85a)(h) (Homo sapiens, UniProt P42336)", "assay": "Kinase panel, residual kinase activity at 1 μM inhibitor", "type": "biochemical", "description": "as §1"}, "[18]": {"molecular_target": "PKCα(h) (Homo sapiens, UniProt P17252)", "assay": "Kinase panel, residual kinase activity at 1 μM inhibitor", "type": "biochemical", "description": "as §1"}, "[19]": {"molecular_target": "PKG1α(h) (Homo sapiens, UniProt Q13976)", "assay": "Kinase panel, residual kinase activity at 1 μM inhibitor", "type": "biochemical", "description": "as §1"}, "[20]": {"molecular_target": "PKG1β(h) (Homo sapiens, UniProt Q13976)", "assay": "Kinase panel, residual kinase activity at 1 μM inhibitor", "type": "biochemical", "description": "as §1"}, "[21]": {"molecular_target": "Pim-1(h) (Homo sapiens, UniProt P11309)", "sequence (P11309 whole entry)": "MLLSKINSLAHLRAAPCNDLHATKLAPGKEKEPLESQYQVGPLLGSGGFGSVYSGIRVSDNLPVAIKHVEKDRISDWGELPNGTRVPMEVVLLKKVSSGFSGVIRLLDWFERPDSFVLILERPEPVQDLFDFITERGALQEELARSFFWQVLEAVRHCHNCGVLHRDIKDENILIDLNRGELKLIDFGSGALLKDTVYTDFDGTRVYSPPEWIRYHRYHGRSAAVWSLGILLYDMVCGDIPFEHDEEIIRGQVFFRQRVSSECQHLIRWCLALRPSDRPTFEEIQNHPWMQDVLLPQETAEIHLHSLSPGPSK", "assay": "Kinase panel, residual kinase activity at 1 μM inhibitor", "type": "biochemical", "description": "as §1"}, "[22]": {"molecular_target": "Pim-3(h) (Homo sapiens, UniProt Q86V86)", "assay": "Kinase panel, residual kinase activity at 1 μM inhibitor", "type": "biochemical", "description": "as §1"}, "[23]": {"molecular_target": "Ret(h) (Homo sapiens, UniProt P07949)", "assay": "Kinase panel, residual kinase activity at 1 μM inhibitor", "type": "biochemical", "description": "as §1"}, "[24]": {"molecular_target": "cKit(h) (Homo sapiens, UniProt P10721)", "assay": "Kinase panel, residual kinase activity at 1 μM inhibitor", "type": "biochemical", "description": "as §1"}, "[25]": {"molecular_target": "p70S6K(h) (Homo sapiens, UniProt P23443)", "assay": "Kinase panel, residual kinase activity at 1 μM inhibitor", "type": "biochemical", "description": "as §1"}, "[26]": {"system": "CaMKIIα binding to GST-GluN2B-c", "description": "In a series of exemplary methods, an in vitro kinase assay was used where purified CaMKIIα is incubated at 30° C. with GST-GluA1 alongside ATP. CaMKIIα normally phosphorylates S831 on the GluA1 subunit and this phosphorylation can be measured as a readout of CaMKIIα enzymatic activity (see e.g., FIG. 8B). […] In another exemplary method, binding of purified CaMKIIα to immobilized GST-GluN2B-c was induced by Ca^2+/CaM in the presence of a vehicle (none), 4 mM ADP or with […] AS105. […] At the same time, two exemplary methods were performed to observe ionomycin or chemical LTP (cLTP) induced co-localization of CaMKII and GluN2B either in HEK293 cells co-expressing GFP-CaMKII and mCherry-2BC or dissociated rat hippocampal cultures expressing GFP-CaMKII and mCh-PSD95 intrabody. HEK293 cells, incubating with vehicle or 10 μM AS105, were subjected to ionomycin. Hippocampal cultures, also incubating with either vehicle or 10 μM AS105, were treated with a chemical LTP (cLTP) stimulus (e.g., 100 μM glutamate, 10 μM glycine for 45 seconds). Confocal microscopy images were taken before and after each stimulus.\nOne possible mechanism by which AS283 could enhance GluN2B binding more than ATP is by suppressing CaMKII-mediated phosphorylation of GluN2B at S1303, as this phosphorylation within the CaMKII binding site on GluN2B reduces CaMKII binding.\nBound CaMKII was measured via immunoblot."}},
  "data": [
    {"smiles": "NCCNc1cccc(-c2ccnc3[nH]c4ccccc4c23)c1", "note": "[AS283]", "values": [
      {"measurement": "residual kinase activity, Arg(h)", "setting": "[1]", "value": "96 percentage of maximal activity"},
      {"measurement": "residual kinase activity, Aurora-C(h)", "setting": "[2]", "value": "63 percentage of maximal activity"},
      {"measurement": "residual kinase activity, CDK5/p35(h)", "setting": "[3]", "value": "33 percentage of maximal activity"},
      {"measurement": "residual kinase activity, CaMKI(h)", "setting": "[4]", "value": "107 percentage of maximal activity"},
      {"measurement": "residual kinase activity, CaMKIIβ(h)", "setting": "[5]", "value": "5 percentage of maximal activity"},
      {"measurement": "residual kinase activity, CaMKIIδ(h)", "setting": "[6]", "value": "2 percentage of maximal activity"},
      {"measurement": "residual kinase activity, FAK(h)", "setting": "[7]", "value": "68 percentage of maximal activity"},
      {"measurement": "residual kinase activity, Flt3(h)", "setting": "[8]", "value": "3 percentage of maximal activity"},
      {"measurement": "residual kinase activity, IGF-1R(h)", "setting": "[9]", "value": "110 percentage of maximal activity"},
      {"measurement": "residual kinase activity, JAK2(h)", "setting": "[10]", "value": "121 percentage of maximal activity"},
      {"measurement": "residual kinase activity, JAK3(h)", "setting": "[11]", "value": "92 percentage of maximal activity"},
      {"measurement": "residual kinase activity, JNK2α2(h)", "setting": "[12]", "value": "82 percentage of maximal activity"},
      {"measurement": "residual kinase activity, MAPK1(h)", "setting": "[13]", "value": "102 percentage of maximal activity"},
      {"measurement": "residual kinase activity, MEK1(h)", "setting": "[14]", "value": "85 percentage of maximal activity"},
      {"measurement": "residual kinase activity, PAK2(h)", "setting": "[15]", "value": "76 percentage of maximal activity"},
      {"measurement": "residual kinase activity, PDGFRβ(h)", "setting": "[16]", "value": "111 percentage of maximal activity"},
      {"measurement": "residual kinase activity, PI3 Kinase (p110a/p85a)(h)", "setting": "[17]", "value": "100 percentage of maximal activity"},
      {"measurement": "residual kinase activity, PKCα(h)", "setting": "[18]", "value": "49 percentage of maximal activity"},
      {"measurement": "residual kinase activity, PKG1α(h)", "setting": "[19]", "value": "48 percentage of maximal activity"},
      {"measurement": "residual kinase activity, PKG1β(h)", "setting": "[20]", "value": "38 percentage of maximal activity"},
      {"measurement": "residual kinase activity, Pim-1(h)", "setting": "[21]", "value": "50 percentage of maximal activity"},
      {"measurement": "residual kinase activity, Pim-3(h)", "setting": "[22]", "value": "97 percentage of maximal activity"},
      {"measurement": "residual kinase activity, Ret(h)", "setting": "[23]", "value": "44 percentage of maximal activity"},
      {"measurement": "residual kinase activity, cKit(h)", "setting": "[24]", "value": "50 percentage of maximal activity"},
      {"measurement": "residual kinase activity, p70S6K(h)", "setting": "[25]", "value": "18 percentage of maximal activity"},
      {"measurement": "CaMKII binding to immobilized GluN2B compared to a control without nucleotide or inhibitor", "setting": "[26]; 10 μM inhibitor, EGTA wash, immunoblot", "value": "increased CaMKII binding"},
      {"measurement": "CaMKII binding to GluN2B in the presence of ADP", "setting": "[26]; 1 mM ADP, AS283 10 μM", "value": "did not inhibit CaMKII binding to GluN2B"},
      {"measurement": "Ca2+/CaM-induced CaMKII binding to immobilized WT GluN2B when ATP was substituted", "setting": "[26]; AS283 versus 1 mM ATP", "value": "significantly enhanced"},
      {"measurement": "enhancing effect on CaMKII binding to GluN2B S1303A mutant compared with ATP", "setting": "[26]; phosphorylation-incompetent GluN2B S1303A", "value": "indistinguishable"}
    ]}
  ]
}
